{
  "source": "patent US20020019527A1",
  "about": "(priority 2000, published 2002)",
  "target": "T1, Farnesyltransferase (FTase) (Bos taurus, UniProt P29702+P49355)",
  "T1 construct": "precipitation from a beef brain homogenate; from tissue; host or cells: bovine brain",
  "T1 sequence (P49355 whole entry, one chain of several)": "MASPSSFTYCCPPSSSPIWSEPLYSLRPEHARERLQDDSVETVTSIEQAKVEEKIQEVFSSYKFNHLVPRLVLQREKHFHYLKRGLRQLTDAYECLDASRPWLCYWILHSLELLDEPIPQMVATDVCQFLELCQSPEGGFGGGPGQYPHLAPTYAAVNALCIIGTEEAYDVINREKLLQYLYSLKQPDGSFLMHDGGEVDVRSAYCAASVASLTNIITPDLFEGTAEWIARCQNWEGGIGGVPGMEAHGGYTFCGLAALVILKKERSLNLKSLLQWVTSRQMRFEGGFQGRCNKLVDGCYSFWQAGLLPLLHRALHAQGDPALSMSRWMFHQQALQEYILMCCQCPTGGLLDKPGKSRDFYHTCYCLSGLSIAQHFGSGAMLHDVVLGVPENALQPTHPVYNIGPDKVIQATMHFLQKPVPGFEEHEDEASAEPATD",
  "experiment": "Farnesyltransferase inhibition (scintillation proximity assay, [3H]-FPP / biotin-K-ras peptide)",
  "type": "biochemical, bovine",
  "method_in_brief": "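Read-out: [3H]-FPP prenylation of a biotinylated K-ras peptide by SPA, measured 1 h after quenching. Enzyme: FTase purified from bovine brain (ammonium sulfate cut, DEAE Sepharose), free of GGTase I and II. Test compounds in ethanol, diluted 10-fold into the reaction.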",
  "key": {"[1]": {"details": "compound at 10^−6 M, bovine FTase, 37° C., 30 minutes"}},
  "note": "Where a name gives a salt, the structure may show the parent alone. Read-outs that look alike come from different tables or passages of the source.",
  "data": [
    {"smiles": "Cn1cncc1CN(Cc1ccc(S(C)(=O)=O)cc1)Cc1ccc(C#N)c(-c2cccc3ccccc23)c1", "note": "[Example 195, 4-((((1-methyl-1H-imidazol-5-yl)methyl)(4-(methylsulfonyl)benzyl)amino)methyl)-2-(1-naphthyl)benzonitrile dihydrochloride]", "values": [
      {"measurement": "inhibition at 1 µM", "setting": "[1]", "result": 98, "unit": "%"}
    ]},
    {"smiles": "Cn1cncc1C(NCCc1ccccc1)c1ccc(C#N)c(-c2cccc3ccccc23)c1", "note": "(centres unmarked) [Example 31, 4-((1-methyl-1H-imidazol-5-yl)(phenethylamino)methyl)-2-(1-naphthyl)benzonitrile]", "values": [
      {"measurement": "inhibition at 1 µM", "setting": "[1]", "result": 100, "unit": "%"}
    ]},
    {"smiles": "Cn1cncc1C(OCc1ccc(C#N)c(Br)c1)c1ccc(C#N)c(-c2cccc3ccccc23)c1", "note": "(centres unmarked) [Example 75, 4-(((3-bromo-4-cyanobenzyl)oxy)(1-methyl-1H-imidazol-5-yl)methyl)-2-(1-naphthyl)benzonitrile hydrochloride]", "values": [
      {"measurement": "inhibition at 1 µM", "setting": "[1]", "result": 100, "unit": "%"}
    ]},
    {"smiles": "Cc1ccccc1-c1cc(C(Oc2ccccc2)c2cncn2C)ccc1C#N", "note": "(centres unmarked) [Example 4, 2′-methyl-5-((1-methyl-1H-imidazol-5-yl)(phenoxy)methyl)(1,1′-biphenyl)-2-carbonitrile hydrochloride]", "values": [
      {"measurement": "inhibition at 1 µM", "setting": "[1]", "result": 88, "unit": "%"}
    ]},
    {"smiles": "Cn1cncc1C(OCc1ccc(C#N)cc1)c1ccc(C#N)c(-c2cccc3ncccc23)c1", "note": "(centres unmarked) [Example 43, 4-(((4-cyanobenzyl)oxy)(1-methyl-1H-imidazol-5-yl)methyl)-2-(5-quinolinyl)benzonitrile dihydrochloride]", "values": [
      {"measurement": "inhibition at 1 µM", "setting": "[1]", "result": 100, "unit": "%"}
    ]},
    {"smiles": "Cn1cncc1CN(Cc1ccccc1)c1ccc(C#N)c(-c2cccc3ccccc23)c1", "note": "[Example 232, 4-(benzyl((1-methyl-1H-imidazol-5-yl)methyl)amino)-2-(1-naphthyl)benzonitrile]", "values": [
      {"measurement": "inhibition at 1 µM", "setting": "[1]", "result": 100, "unit": "%"}
    ]},
    {"smiles": "Cn1cncc1C(OCc1ccc(C#N)cc1)c1ccc(C#N)c(-c2ccccc2C=O)c1", "note": "(centres unmarked) [Example 200, 5-(((4-cyanobenzyl)oxy)(1-methyl-1H-imidazol-5-yl)methyl)-2′-formyl(1,1′-biphenyl)-2-carbonitrile hydrochloride]", "values": [
      {"measurement": "inhibition at 1 µM", "setting": "[1]", "result": 99, "unit": "%"}
    ]},
    {"smiles": "Cc1ccccc1-c1cc(C(OCc2ccc(C(F)(F)F)cc2)c2cncn2C)ccc1C#N.Cl", "note": "(centres unmarked) [Example 139]", "values": [
      {"measurement": "% Inhibition at 10^−6M", "result": 97, "unit": "%"}
    ]},
    {"smiles": "Cc1ccccc1-c1cc(C(OCc2noc(-c3cccc(C(F)(F)F)c3)n2)c2cncn2C)ccc1C#N.Cl", "note": "(centres unmarked) [Example 169, 2′-methyl-5-((1,1-methyl-1H-imidazol-5-yl)((5-(3-(trifluoromethyl)phenyl)-1,2,4-oxadiazol-3-yl)methoxy)methyl)(1,1′-biphenyl)-2-carbonitrile hydrochloride]", "values": [
      {"measurement": "% Inhibition at 10^−6M", "result": 70, "unit": "%"}
    ]},
    {"smiles": "Cn1cncc1CN(Cc1ccc(OC(F)(F)F)cc1)Cc1ccc(C#N)c(-c2cccc3ccccc23)c1", "note": "[Example 41, 4-((((1-methyl-1H-imidazol-5-yl)methyl)(4-(trifluoromethoxy)benzyl)amino)methyl)-2-(1-naphthyl)benzonitrile dihydrochloride]", "values": [
      {"measurement": "inhibition at 1 µM", "setting": "[1]", "result": 100, "unit": "%"}
    ]},
    {"smiles": "Cn1cncc1CN(Cc1ccc(C#N)c(-c2cccc3ccccc23)c1)Cc1cc(OC(F)(F)F)ccc1O", "note": "[Example 207, 4-(((2-hydroxy-5-(trifluoromethoxy)benzyl)((1-methyl-1H-imidazol-5-yl)methyl)-amino)methyl)-2-(1-naphthyl)benzonitrile]", "values": [
      {"measurement": "inhibition at 1 µM", "setting": "[1]", "result": 91, "unit": "%"}
    ]},
    {"smiles": "N#Cc1ccc(CN(CCC2CCCCC2)C(=O)Cn2ccnc2)cc1-c1cccc2ccccc12", "note": "[Example 85, N-(4-cyano-3-(1-naphthyl)benzyl)-N-(2-cyclohexylethyl)-2-(1H-imidazol-1-yl)acetamide]", "values": [
      {"measurement": "inhibition at 1 µM", "setting": "[1]", "result": 46, "unit": "%"}
    ]},
    {"smiles": "COC(=O)c1ccc(COC(c2ccc(C#N)c(-c3ccccc3C)c2)c2cncn2C)cc1", "note": "(centres unmarked) [Example 130, methyl 4-(((6-cyano-2′-methyl(1,1′-biphenyl)-3-yl)(1-methyl-1H-imidazol-5-yl)methoxy)methyl)benzoate hydrochloride]", "values": [
      {"measurement": "inhibition at 1 µM", "setting": "[1]", "result": 97, "unit": "%"}
    ]},
    {"smiles": "Cn1cncc1C(OCc1ccc(N=[N+]=[N-])cc1)c1ccc(C#N)c(-c2cccc3ccccc23)c1", "note": "(centres unmarked) [Example 276, 4-((1-methyl-1H-imidazol-5-yl)((4-azidobenzyl)oxy)methyl)-2-(1-naphthyl)benzonitrile hydrochloride]", "values": [
      {"measurement": "inhibition at 1 µM", "setting": "[1]", "result": 100, "unit": "%"}
    ]},
    {"smiles": "Cn1cncc1C(NCc1ccc(C#N)cn1)c1ccc(C#N)c(-c2cccc3ccccc23)c1", "note": "(centres unmarked) [Example 51, 6-((((4-cyano-3-(1-naphthyl)phenyl)(1-methyl-1H-imidazol-5-yl)methyl)amino)methyl)nicotinonitrile trihydrochloride]", "values": [
      {"measurement": "inhibition at 1 µM", "setting": "[1]", "result": 100, "unit": "%"}
    ]},
    {"smiles": "Cl.Cl.Cn1cncc1C(NCc1ccc(S(C)(=O)=O)cc1)c1ccc(C#N)c(-c2cccc3ccccc23)c1", "note": "(centres unmarked) [Example 17]", "values": [
      {"measurement": "% Inhibition at 10^−6M", "setting": "[1]", "result": 100, "unit": "%"}
    ]},
    {"smiles": "Cn1cncc1C(OCc1ccc(C(N)=O)cn1)c1ccc(C#N)c(-c2cccc3cccnc23)c1", "note": "(centres unmarked) [Example 244, 6-(((4-cyano-3-(8-quinolinyl)phenyl)(1-methyl-1H-imidazol-5-yl)methoxy)methyl)nicotinamide trihydrochloride]", "values": [
      {"measurement": "inhibition at 1 µM", "setting": "[1]", "result": 90, "unit": "%"}
    ]},
    {"smiles": "CC(NC(c1ccc(C#N)c(-c2cccc3ccccc23)c1)c1cncn1C)c1ccc(C#N)cc1", "note": "(centres unmarked) [Example 36, 4-(((1-(4-cyanophenyl)ethyl)amino)(1-methyl-1H-imidazol-5-yl)methyl)-2-(1-naphthyl)benzonitrile dihydrochloride]", "values": [
      {"measurement": "inhibition at 1 µM", "setting": "[1]", "result": 100, "unit": "%"}
    ]},
    {"smiles": "Cn1cncc1C(OCc1ccc(C#N)cn1)c1ccc(C#N)c(-c2ccccc2C(F)(F)F)c1", "note": "(centres unmarked) [Example 251, 6-(((6-cyano-2′-(trifluoromethyl)(1,1′-biphenyl)-3-yl)(1-methyl-1H-imidazol-5-yl)methoxy)methyl)nicotinonitrile dihydrochloride]", "values": [
      {"measurement": "inhibition at 1 µM", "setting": "[1]", "result": 99, "unit": "%"}
    ]},
    {"smiles": "Cc1ccccc1-c1cc(C(OCc2cccc(C#N)c2)c2cncn2C)ccc1C#N", "note": "(centres unmarked) [Example 113, 5-(((3-cyanobenzyl)oxy)(1-methyl-1H-imidazol-5-yl)methyl)-2′-methyl(1,1′-biphenyl)-2-carbonitrile hydrochloride]", "values": [
      {"measurement": "inhibition at 1 µM", "setting": "[1]", "result": 90, "unit": "%"}
    ]},
    {"smiles": "Cn1cncc1C(NCc1ccc(C#N)cc1)c1ccc(C#N)c(-c2cccc3ccccc23)c1", "note": "(centres unmarked) [Example 13, 4-(((4-cyanobenzyl)amino)(1-methyl-1H-imidazol-5-yl)methyl)-2-(1-naphthyl)benzonitrile dihydrochloride]", "values": [
      {"measurement": "inhibition at 1 µM", "setting": "[1]", "result": 100, "unit": "%"}
    ]},
    {"smiles": "Cc1ccc(COC(c2ccc(C#N)c(-c3ccccc3C)c2)c2cncn2C)cc1C", "note": "(centres unmarked) [Example 154, 5-(((3,4-dimethylbenzyl)oxy)(1-methyl-1H-imidazol-5-yl)methyl)-2′-methyl(1,1′-biphenyl)-2-carbonitrile hydrochloride]", "values": [
      {"measurement": "inhibition at 1 µM", "setting": "[1]", "result": 95, "unit": "%"}
    ]},
    {"smiles": "Cc1cc(COC(c2ccc(C#N)c(-c3ccccc3C)c2)c2cncn2C)c(C#N)cc1C#N", "note": "(centres unmarked) [Example 144, 4-(((6-cyano-2′-methyl(1,1′-biphenyl)-3-yl)(1-methyl-1H-imidazol-5-yl)methoxy)methyl)-6-methylisophthalonitrile hydrochloride]", "values": [
      {"measurement": "inhibition at 1 µM", "setting": "[1]", "result": 96, "unit": "%"}
    ]},
    {"smiles": "Cc1ccccc1-c1cc(C(OCc2c(C)ccc3ccccc23)c2cncn2C)ccc1C#N.Cl", "note": "(centres unmarked) [Example 178]", "values": [
      {"measurement": "% Inhibition at 10^−6M", "result": 90, "unit": "%"}
    ]},
    {"smiles": "Cn1cncc1C(OCC1CCCCC1)c1ccc(C#N)c(-c2cccc3ccccc23)c1", "note": "(centres unmarked) [Example 14, 4-((cyclohexylmethoxy)(1-methyl-1H-imidazol-5-yl)methyl)-2-(1-naphthyl)benzonitrile hydrochloride]", "values": [
      {"measurement": "inhibition at 1 µM", "setting": "[1]", "result": 100, "unit": "%"}
    ]},
    {"smiles": "Cc1ccccc1-c1cc(C(OCc2ccc(-c3ccccc3)cc2)c2cncn2C)ccc1C#N", "note": "(centres unmarked) [Example 161, 5-(((1,1′-biphenyl)-4-ylmethoxy)(1-methyl-1H-imidazol-5-yl)methyl)-2′-methyl(1,1′-biphenyl)-2-carbonitrile hydrochloride]", "values": [
      {"measurement": "inhibition at 1 µM", "setting": "[1]", "result": 96, "unit": "%"}
    ]},
    {"smiles": "COc1ccc(C(C)=O)cc1COC(c1ccc(C#N)c(-c2ccccc2C)c1)c1cncn1C", "note": "(centres unmarked) [Example 170, 5-(((5-acetyl-2-methoxybenzyl)oxy)(1-methyl-1H-imidazol-5-yl)methyl)-2′-methyl(1,1′-biphenyl)-2-carbonitrile hydrochloride]", "values": [
      {"measurement": "inhibition at 1 µM", "setting": "[1]", "result": 85, "unit": "%"}
    ]},
    {"smiles": "Cc1cc(C)cc(COC(c2ccc(C#N)c(-c3ccccc3C)c2)c2cncn2C)c1", "note": "(centres unmarked) [Example 140, 5-(((3,5-dimethylbenzyl)oxy)(1-methyl-1H-imidazol-5-yl)methyl)-2′-methyl(1,1′-biphenyl)-2-carbonitrile hydrochloride]", "values": [
      {"measurement": "inhibition at 1 µM", "setting": "[1]", "result": 94, "unit": "%"}
    ]},
    {"smiles": "Cn1cncc1C(OCc1ccccc1)c1ccc(C#N)c(-c2cccc(-c3ccccc3)c2)c1", "note": "(centres unmarked) [Example 6, 5-((benzyloxy)(1-methyl-1H-imidazol-5-yl)methyl)-3′-(phenyl)(1,1′-biphenyl)-2-carbonitrile hydrochloride]", "values": [
      {"measurement": "inhibition at 1 µM", "setting": "[1]", "result": 61, "unit": "%"}
    ]},
    {"smiles": "Cc1ccccc1-c1cc(C(OCc2cc(Cl)nc(Cl)c2)c2cncn2C)ccc1C#N", "note": "(centres unmarked) [Example 137, 5-(((2,6-dichloro-4-pyridinyl)methoxy)(1-methyl-1H-imidazol-5-yl)methyl)-2′-methyl(1,1′-biphenyl)-2-carbonitrile hydrochloride]", "values": [
      {"measurement": "inhibition at 1 µM", "setting": "[1]", "result": 96, "unit": "%"}
    ]},
    {"smiles": "Cc1ccccc1-c1cc(C(OCc2ccccc2[N+](=O)[O-])c2cncn2C)ccc1C#N.Cl", "note": "(centres unmarked) [Example 142]", "values": [
      {"measurement": "% Inhibition at 10^−6M", "result": 94, "unit": "%"}
    ]},
    {"smiles": "Cc1ccccc1COC(c1ccc(C#N)c(-c2ccccc2C)c1)c1cncn1C.Cl", "note": "(centres unmarked) [Example 135]", "values": [
      {"measurement": "% Inhibition at 10^−6M", "result": 94, "unit": "%"}
    ]},
    {"smiles": "Cc1ccccc1-c1cc(C(O)c2cccnc2)ccc1C#N", "note": "(centres unmarked) [Example 211, 5-(hydroxy(3-pyridinyl)methyl)-2′-methyl(1,1′-biphenyl)-2-carbonitrile]", "values": [
      {"measurement": "inhibition at 1 µM", "setting": "[1]", "result": 30, "unit": "%"}
    ]},
    {"smiles": "Cl.Cl.Cn1cncc1C(OCc1ccc(C#N)nc1)c1ccc(C#N)c(-c2cccc3ccccc23)c1", "note": "(centres unmarked) [Example 274, 5-(((4-cyano-3-(1-naphthyl)phenyl)(1-methyl-1H-imidazol-5-yl)methoxy)methyl)-2-pyridinecarbonitrile dihydrochlolide]", "values": [
      {"measurement": "% Inhibition at 10^−6M", "setting": "[1]", "result": 100, "unit": "%"}
    ]},
    {"smiles": "Cc1ccccc1-c1cc(C(OCc2ccc(C(C)C)cc2)c2cncn2C)ccc1C#N", "note": "(centres unmarked) [Example 153, 5-(((4-isopropylbenzyl)oxy)(1-methyl-1H-imidazol-5-yl)methyl)-2′-methyl(1,1′-biphenyl)-2-carbonitrile hydrochloride]", "values": [
      {"measurement": "inhibition at 1 µM", "setting": "[1]", "result": 92, "unit": "%"}
    ]}
  ]
}
